ChEMBL document CHEMBL1145787, “Synthesis and structure-activity relationship of N-substituted 4-arylsulfonylpiperidine-4-hydroxamic acids as novel, orally active matrix metalloproteinase inhibitors for the treatment of osteoarthritis” (J Med Chem, 2003)
pIC50: −log10 of the molar value.

What was measured:
[1] = In vivo inhibition of Matrix metalloprotease enzyme by Sponge-wrapped cartilage assay, value is relative to activity of RS-130830 (39+/-2) at 10 mg/kg. po. bid; assay type: functional
[2] = In vivo inhibitory activity against Matrix metalloprotease enzyme by dialysis implant assay, value is relative to activity of CGS-27023 (65+/-2) at 25 mg/kg. po; assay type: functional
[3] = target: Collagenase 3 (Homo sapiens, UniProt P45452)
[4] = test system: Rattus norvegicus; experiment: In vivo inhibition of Matrix metalloprotease enzyme by Sponge-wrapped cartilage assay at 25 mg/kg. po. qd; assay type: functional

Row | pIC50 [3] | SMILES | inhibition in vivo at 10 mg/kg [1] | inhibition in vivo at 25 mg/kg [2] | Protection [4]
1 | 8.70 | CN1CCC(C(=O)NO)(S(=O)(=O)c2ccc(Oc3ccc(Cl)cc3)cc2)CC1 | 73% | 91% | 
2 |  | COc1ccc(S(=O)(=O)C(C)(Cc2ccc(OCCN3CCCCC3)cc2)C(=O)NO)cc1 (centres undefined) |  |  | 68%
